Source: US10757944B2, “Ozone treatment for elimination of pathogens” (priority 2016, dated 2020)
“And” between values parts separate entries of the source, which are not always exact repeats. Equal values may be shown once.

Columns and labels:
Type in all cases: cell-based
Escherichia Coli = test: Gaseous ozone treatment of Cannabis inoculated with E. Coli, microbial count
Description: (§1) Cannabis plants were individually contaminated with Escherichia Coli, Salmonella enterica sv typhimurium, Listeria monocytogenes and Candida albicans then exposed to gaseous ozone for 20 minutes at 100 ppm and 200 ppm.
Pure cultures of Escherichia coli and Listeria monocytogenes provided by the American Type Culture Collection (ATCC) were grown in selective media broths. The Candida albicans provided by ATCC was grown on potato dextrose agar, and after significant growth was achieved, the colonies were transferred and suspended in Butterfield's buffer. After significant turbidity in each broth of pathogens was observed, they, along with Butterfield's buffer with the suspended Candida albicans, were used to inoculate individual Cannabis samples. […]
Three samples for each organism were tested at each of the concentrations. […] All samples were then analyzed for their microbial counts by first generating serial dilution using Butterfield's buffer as the diluent for each sample then individually plating the resultant dilutions onto selective media appropriate for the organism being analyzed. After the required incubation temperatures and times were completed, the organisms on the plates were counted. For each set of dilutions of a given sample and starting at the plate representing the lowest dilution ratio, the first plate that was countable was counted and the result was recorded. […]

[1] = tested on: Salmonella enterica sv typhimurium; test: Gaseous ozone treatment of Cannabis inoculated with Salmonella, microbial count; conditions: for kill of bacterial pathogen (in words): 20 minutes; for Microbial Count: 20 min
Description: as §1
(§2) Pure cultures of Escherichia coli and Listeria monocytogenes provided by the American Type Culture Collection (ATCC) were grown in selective media broths. The Candida albicans provided by ATCC was grown on potato dextrose agar, and after significant growth was achieved, the colonies were transferred and suspended in Butterfield's buffer. After significant turbidity in each broth of pathogens was observed, they, along with Butterfield's buffer with the suspended Candida albicans, were used to inoculate individual Cannabis samples. This process created four individual populations of Cannabis with each population being contaminated with one of the four organisms grown. After inoculating the samples they were allowed to dry overnight by placing them out in the open at room temperature. Each population of Cannabis was then divided into smaller individual 2-4 gram samples which were used in the tests. One test consisted of placing nearly half of the smaller samples into an ozone gas chamber for 20 minutes at an approximate ozone concentration of 100 ppm. The remaining samples were set aside to be used as controls.
(§3) Three samples for each organism were tested at each of the concentrations. The control samples were placed into the same chamber for 20 minutes with an ozone concentration of 0 ppm. All samples were then analyzed for their microbial counts by first generating serial dilution using Butterfield's buffer as the diluent for each sample then individually plating the resultant dilutions onto selective media appropriate for the organism being analyzed. After the required incubation temperatures and times were completed, the organisms on the plates were counted. For each set of dilutions of a given sample and starting at the plate representing the lowest dilution ratio, the first plate that was countable was counted and the result was recorded.
(§4) Testing occurred over two days. The first day involved testing one sample of Cannabis for each organism at an ozone concentration of 100 ppm and another test of only Listeria at 50 ppm. Additional testing involving subsequent trials for each organism at ozone concentrations of 100 ppm and 200 ppm were conducted on the second day of testing.
(§5) The ozone concentration in the ozone chamber was kept at a range approximating the desired 100 ppm and 200 ppm concentrations. For instance, when the desired concentration was 100 ppm, the actual range of concentrations was 98 ppm to 106 ppm, and when the desired concentration was 200 ppm, the actual range of concentration was 198 ppm to 204 ppm. […]

Listeria monocytogenes = test: Gaseous ozone treatment of Cannabis inoculated with Listeria, microbial count; conditions: for kill of bacterial pathogen (in words): 20 minutes
Description: as §1, §2, §3, §4
The ozone concentration in the ozone chamber was kept at a range approximating the desired 100 ppm and 200 ppm concentrations. For instance, when the desired concentration was 100 ppm, the actual range of concentrations was 98 ppm to 106 ppm, and when the desired concentration was 200 ppm, the actual range of concentration was 198 ppm to 204 ppm. While the samples were being placed into the chamber ozone gas was lost.

Candida albicans = test: Gaseous ozone treatment of Cannabis inoculated with Candida, microbial count; conditions: for Microbial Count: 20 min
Description: as §1, §2, §3, §4, §5

[2] = tested on: Escherichia Coli, Salmonella enterica sv typhimurium, Listeria monocytogenes and Candida albicans; test: Gaseous ozone treatment of inoculated Cannabis, summary statements for all organisms
Description: as §1, §2
as §3, with “recorded. […]” for “recorded.”

total yeast and mold = test: Total yeast and mold on homogenized cannabis flower after ozone exposure (3M Petrifilm Rapid Yeast and Mold Count Plate); conditions: for Average CFU/g (all samples tested) of yeast and mold remaining: 0 minutes: 68,000
Description: The ability of ozone to reduce fungus using an embodiment of a disclosed pathogen reduction device was also evaluated. In this series of experiments, homogenized cannabis flower with a total yeast and mold bio-burden exceeding 10,000 CFU/g was exposed to ozone using an embodiment of a disclosed pathogen reduction device. 20 gram samples of the cannabis flower were separated into two groups (10 grams a group) and placed on different racks within the pathogen reduction device. One 10 gram sample was placed on an industrial grade aluminum rack with air holes in order to maximize ozone flow and increase the surface area of the flower that would be exposed to ozone. A second 10 gram sample was place directly onto a rack screen (aluminum foil with holes pocked into it); however, because some of the homogenized cannabis flower was finer than the rack screen, some flower from the second 10 gram sample passed through the rack screen and landed on the lowest mesh screen in the device, thereby, creating a third sample for testing.
20 gram samples as described above were exposed to ozone for 0 minutes (control), 20 minutes, 30 minutes, 45 minutes, and 60 minutes at an ozone concentration of 200 ppm. Six 1 gram samples from each treatment time were processed and evaluated using a 3M® Petrifilm® Rapid Yeast and Mold Count Plate and accompanying Product Instructions. The ozone treated samples were homogenized, diluted with buffer (distilled water), and then 1 milliliter suspension samples were dispensed onto 3M® Petrifilm® Rapid Yeast and Mold Count Plates. The plates were incubated at 27° C. for greater than 60 hours in order to quantify the total yeast and mold remaining on the cannabis flower following exposure to ozone. Three of the six 1 gram samples were taken from the flower placed on the industrial grade aluminum rack as detailed above. Two of the 1 gram samples were taken from the flower placed directly on the screen. The final 1 gram sample was collected from the lowest mesh screen in the device where the finest flower collected after falling through the rack screen.

mold and yeast = test: Additional ozone exposure tests on cannabis flower or trim, mold and yeast CFU; conditions: ozone 200 ppm
Description: Some additional ozone exposure tests were performed with cannabis flower or trim on a variety of commercially available strains using an embodiment of a disclosed pathogen reduction device. In each experiment (disclosed in Table 6) a reduction of mold and yeast CFU/g was measured (as disclosed above using 3M® Petrifilm® Rapid Yeast and Mold Count Plate and Product Instruction) after treating different weights of cannabis with an ozone concentration of 200 ppm for between 20 and 60 minutes.

[3] = 100 ppm ozone, compared with 200 ppm

Q: What does the source list for `O=[O+][O-]` [ozone]?
A: kill of Escherichia coli (in words) (Escherichia Coli; both 100 ppm and 200 ppm ozone, 20 minutes): significantly vulnerable; Microbial Count (Escherichia Coli; first day, target ozone 100 ppm (actual 95-102 ppm), 20 min, control (0 ppm) 1.2 * 10^11): 2.8 * 10^10 cfu/g; kill of bacterial pathogen (in words) [1, 3]: lesser kill rate; kill of bacterial pathogen (in words) ([1]; 200 ppm ozone): Significant kills; Microbial Count ([1]; first day, target ozone 100 ppm (actual 95-102 ppm), control (0 ppm) 1.1 * 10^11): 1.7 * 10^10 cfu/g; Microbial Count ([1]; second day, ozone 100 ppm (98-106 ppm), Trials 2-3, control 4.5 * 10^4): 1.1 * 10^4 cfu/g and 1.3 * 10^4 cfu/g; difference between the control and the treated sample (in words) (Listeria monocytogenes; 50 ppm ozone, 20 min, first day): no statistically significant difference; kill of bacterial pathogen (in words) (Listeria monocytogenes; [3]): lesser kill rate; kill of bacterial pathogen (in words) (Listeria monocytogenes; 200 ppm ozone): Significant kills; Microbial Count (Listeria monocytogenes; first day, target ozone 50 ppm (actual 46-52 ppm), 20 min, control (0 ppm) 7.0 * 10^2): 2.6 * 10^2 cfu/g; Microbial Count (Listeria monocytogenes; first day, target ozone 100 ppm (actual 95-102 ppm), 20 min, control (0 ppm) 1.9 * 10^7): 4.8 * 10^5 cfu/g; Microbial Count (Listeria monocytogenes; second day, ozone 100 ppm (98-106 ppm), 20 min, Trials 2-3, control 2.0 * 10^4): 2.0 * 10^3 cfu/g and 1.0 * 10^3 cfu/g; effect of ozone treatment on Candida albicans (in words) (Candida albicans; 100 ppm and 200 ppm ozone, 20 minutes): limited; microbial count of 200 ppm trials compared with the control group (in words) (Candida albicans; 200 ppm ozone, 20 minutes, FIG. 10): average reduced microbial count; Microbial Count (Candida albicans; listed as 'Mold Treated', first day, target ozone 100 ppm (actual 95-102 ppm), Mold Control (0 ppm) 1.4 * 10^12): 1.9 * 10^11 cfu/g; Microbial Count (Candida albicans; second day, ozone 100 ppm (98-106 ppm), Trials 2-3, control 5.0 * 10^5): 2.7 * 10^5 cfu/g and 1.5 * 10^4 cfu/g; kill of all of the organisms involved in the test (in words) ([2]; 100 ppm ozone, first day (Table 1)): significant kill; kill of all organisms compared to the controls (in words) ([2]; 100 ppm ozone, second day (Table 2)): significant kill; kills at 200 ppm compared to the kills at 100 ppm (in words) ([2]; 200 ppm ozone, second day (Table 2)): amount of kills increased; decrease in total yeast and mold bio-burden (total yeast and mold; 200 ppm ozone for 60 minutes): 92%; average Colony Forming Units/gram after treatment (total yeast and mold; 200 ppm ozone for 60 minutes, dropping from an average of 82,000 CFU/g): 7,000 CFR/g; Average CFU/g (all samples tested) of yeast and mold remaining (total yeast and mold; 200 ppm ozone, 20 minutes): 18,000 CFU/g; CFU/g (Test 1) (total yeast and mold; 200 ppm ozone, 20 minutes, Industrial grade aluminum rack (samples 4-6), T0: 25,000, 60,000, 82,000): 19,000 CFU/g and 12,000 CFU/g and 21,000 CFU/g; CFU/g (Test 2) (total yeast and mold; 200 ppm ozone, 20 minutes, Industrial grade aluminum rack (samples 4-6), T0: 53,000, 140,000, 130,000): 23,000 CFU/g and 18,000 CFU/g and 21,000 CFU/g; CFU/g (Test 2) (total yeast and mold; 200 ppm ozone, 20 minutes, Lowest mesh screen (sample 1), T0: 61,000): 24,000 CFU/g; CFU/g (Test 1) (total yeast and mold; 200 ppm ozone, 20 minutes, Lowest mesh screen (sample 1), T0: 77,000): 18,000 CFU/g; CFU/g (Test 2) (total yeast and mold; 200 ppm ozone, 20 minutes, Rack screen (samples 2-3), T0: 28,000, 77,000): 16,000 CFU/g and 17,000 CFU/g; CFU/g (Test 1) (total yeast and mold; 200 ppm ozone, 20 minutes, Rack screen (samples 2-3), T0: 30,000, 50,000): 15,000 CFU/g; Average CFU/g (all samples tested) of yeast and mold remaining (total yeast and mold; 200 ppm ozone, 30 minutes): 17,000 CFU/g; CFU/g (Test 1) (total yeast and mold; 200 ppm ozone, 30 minutes, Industrial grade aluminum rack (samples 4-6), T0: 25,000, 60,000, 82,000): 16,000 CFU/g and 11,000 CFU/g and 20,000 CFU/g; CFU/g (Test 2) (total yeast and mold; 200 ppm ozone, 30 minutes, Industrial grade aluminum rack (samples 4-6), T0: 53,000, 140,000, 130,000): 15,000 CFU/g and 14,000 CFU/g and 20,000 CFU/g; CFU/g (Test 2) (total yeast and mold; 200 ppm ozone, 30 minutes, Lowest mesh screen (sample 1), T0: 61,000): 20,000 CFU/g; CFU/g (Test 1) (total yeast and mold; 200 ppm ozone, 30 minutes, Lowest mesh screen (sample 1), T0: 77,000): 16,000 CFU/g; CFU/g (Test 2) (total yeast and mold; 200 ppm ozone, 30 minutes, Rack screen (samples 2-3), T0: 28,000, 77,000): 30,000 CFU/g and 16,000 CFU/g; CFU/g (Test 1) (total yeast and mold; 200 ppm ozone, 30 minutes, Rack screen (samples 2-3), T0: 30,000, 50,000): 18,000 CFU/g and 13,000 CFU/g; Average CFU/g (all samples tested) of yeast and mold remaining (total yeast and mold; 200 ppm ozone, 45 minutes): 16,000 CFU/g; CFU/g (Test 2) (total yeast and mold; 200 ppm ozone, 45 minutes, Lowest mesh screen (sample 1), T0: 61,000): 11,000 CFU/g; CFU/g (Test 1) (total yeast and mold; 200 ppm ozone, 45 minutes, Lowest mesh screen (sample 1), T0: 77,000): 7,100 CFU/g; CFU/g (Test 2) (total yeast and mold; 200 ppm ozone, 45 minutes, Rack screen (samples 2-3), T0: 28,000, 77,000): 15,000 CFU/g and 12,000 CFU/g; CFU/g (Test 1) (total yeast and mold; 200 ppm ozone, 45 minutes, Rack screen (samples 2-3), T0: 30,000, 50,000): 13,000 CFU/g and 11,000 CFU/g; Average CFU/g (all samples tested) of yeast and mold remaining (total yeast and mold; 200 ppm ozone, 60 minutes): 6,000 CFU/g; CFU/g (Test 2) (total yeast and mold; 200 ppm ozone, 60 minutes, Lowest mesh screen (sample 1), T0: 61,000): 9,000 CFU/g; CFU/g (Test 1) (total yeast and mold; 200 ppm ozone, 60 minutes, Lowest mesh screen (sample 1), T0: 77,000): 7,400 CFU/g; CFU/g (Test 2) (total yeast and mold; 200 ppm ozone, 60 minutes, Rack screen (samples 2-3), T0: 28,000, 77,000): 10,000 CFU/g and 6,300 CFU/g; CFU/g (Test 1) (total yeast and mold; 200 ppm ozone, 60 minutes, Rack screen (samples 2-3), T0: 30,000, 50,000): 6,000 CFU/g and 7,800 CFU/g; additional reduction in CFU/g (total yeast and mold; 200 ppm ozone, after the first 20 minutes and up until 45 minutes): 1.1%; another reduction in CFU/g (total yeast and mold; 200 ppm ozone, between a 45 minute and 60 minute exposure): 14.1%; yeast and mold across all 6 samples following treatment (total yeast and mold; 200 ppm ozone, from roughly 10^5 CFU/g): below 10,000 CFU/g; inhibition of fungi by ozone exposure (in words) (total yeast and mold; Table 4, 200 ppm ozone, 20-60 minutes): strongly inhibited; Ending CFU (mold and yeast; Flower, Hybrid, 5 lbs, 60:00 min, Initial CFU 77,000): 4500 CFU; Ending CFU (mold and yeast; Flower, Hybrid/Indica, 1 lb, 45:00 min, Initial CFU 2,200): 220 CFU; Ending CFU (mold and yeast; Flower, Hybrid/Indica, 6 lbs, 25:00 min, Initial CFU 51,750): 30,000-32,000 CFU; Ending CFU (mold and yeast; Flower, Hybrid/Indica, weight NA, 60:00 min, Initial CFU 110,000): 3,000 CFU; Ending CFU (mold and yeast; Flower, Hybrid/Sativa, 1 lb, 20:00 min, Initial CFU 100,000): 5,400-5,500 CFU; Ending CFU (mold and yeast; Flower, Indica, 3 lbs, 60:00 min, Initial CFU 320,000): 91,000 CFU; Ending CFU (mold and yeast; Trim, Hybrid/Indica, 6 lbs, 25:00 min, Initial CFU 17,000): 800-11,000 CFU; Ending CFU (mold and yeast; Trim, Hybrid/Sativa, 3 lbs, 60:00 min, Initial CFU 50,000): 3,000 CFU
